Laboratory results published in ChEMBL document CHEMBL3352549, “Discovery, biological evaluation, and crystal structure of a novel nanomolar selective butyrylcholinesterase inhibitor” (J Med Chem, 2014).

How the values were obtained:
Acetylcholinesterase = biological target: T1, Acetylcholinesterase (Mus musculus, UniProt P21836); assay: Inhibition of recombinant mouse AChE by Ellman method
T1 sequence (P21836 whole entry): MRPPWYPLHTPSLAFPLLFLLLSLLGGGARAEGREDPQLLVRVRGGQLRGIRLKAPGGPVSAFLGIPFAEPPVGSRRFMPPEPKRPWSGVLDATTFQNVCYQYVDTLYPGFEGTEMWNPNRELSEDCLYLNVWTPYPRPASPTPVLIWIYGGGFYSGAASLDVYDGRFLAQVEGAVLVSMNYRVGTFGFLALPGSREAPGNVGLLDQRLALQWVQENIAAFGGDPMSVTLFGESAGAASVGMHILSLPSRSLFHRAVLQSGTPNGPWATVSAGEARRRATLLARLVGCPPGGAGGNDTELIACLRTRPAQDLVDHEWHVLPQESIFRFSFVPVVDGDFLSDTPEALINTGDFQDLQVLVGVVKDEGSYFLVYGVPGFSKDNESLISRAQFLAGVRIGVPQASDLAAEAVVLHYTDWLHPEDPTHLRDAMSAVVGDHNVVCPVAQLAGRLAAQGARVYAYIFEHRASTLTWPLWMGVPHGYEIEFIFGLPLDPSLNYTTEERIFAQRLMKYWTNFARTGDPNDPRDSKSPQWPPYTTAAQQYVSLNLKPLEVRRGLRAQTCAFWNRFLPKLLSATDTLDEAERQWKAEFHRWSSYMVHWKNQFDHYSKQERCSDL

Cholinesterase [1] = biological target: T2, Cholinesterase (Homo sapiens, UniProt P06276)
Description: Inhibition of recombinant human BChE by Ellman method

Cholinesterase [2] = biological target: T2, Cholinesterase; assay: Inhibition of recombinant human BChE at 50 nM by stopped flow apparatus method
Cholinesterase [3] = biological target: T2, Cholinesterase; assay: Inhibition of recombinant human BChE at 10 uM by Ellman method
[4] = biological target: Cholinesterase (Mus musculus) (UniProt Q03311); assay: Inhibition of recombinant mouse BChE at 10 uM by Ellman method
[5] = biological target: T3, Acetylcholinesterase (Mus musculus) (UniProt P21836); assay: Inhibition of recombinant mouse AChE assessed as residual activity at 10 uM by Ellman method
T3 sequence (whole entry): T1 sequence (P21836 whole entry)

SH-SY5Y [6] = assay: Neuroprotective activity in human SH-SY5Y cells assessed as inhibition of amyloid beta(1-42)-induced neurotoxicity at 0.1 to 10 uM incubated for 48 hrs by MTS assay; type: functional, cell-based
[7] = Cytotoxicity against human SH-SY5Y cells assessed as reduction in cell viability at 10 uM after 48 hrs by MTS assay; type: cell-based
SH-SY5Y [8] = assay: Neuroprotective activity in human SH-SY5Y cells assessed as inhibition of amyloid beta(1-42)-induced neurotoxicity at 0.1 to 10 uM incubated for 48 hrs by LDH release assay; type: functional, cell-based

T2 sequence (P06276 whole entry): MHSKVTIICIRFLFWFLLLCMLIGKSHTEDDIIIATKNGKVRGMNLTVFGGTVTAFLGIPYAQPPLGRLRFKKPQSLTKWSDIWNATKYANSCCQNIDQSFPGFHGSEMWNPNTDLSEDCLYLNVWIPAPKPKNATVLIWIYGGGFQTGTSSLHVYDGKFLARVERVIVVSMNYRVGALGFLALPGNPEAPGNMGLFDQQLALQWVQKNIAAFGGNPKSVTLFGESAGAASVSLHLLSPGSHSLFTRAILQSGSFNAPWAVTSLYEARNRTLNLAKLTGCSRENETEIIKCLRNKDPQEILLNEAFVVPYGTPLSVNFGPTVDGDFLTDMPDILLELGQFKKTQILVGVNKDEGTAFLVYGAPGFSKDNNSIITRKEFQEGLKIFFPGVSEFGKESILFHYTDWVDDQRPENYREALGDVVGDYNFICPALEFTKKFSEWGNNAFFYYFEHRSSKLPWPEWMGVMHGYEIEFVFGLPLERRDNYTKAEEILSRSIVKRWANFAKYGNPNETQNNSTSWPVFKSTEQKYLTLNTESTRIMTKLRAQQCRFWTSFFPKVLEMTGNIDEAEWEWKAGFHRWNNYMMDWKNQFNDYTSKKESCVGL
Sequence of Cholinesterase (Mus musculus) (Q03311 whole entry): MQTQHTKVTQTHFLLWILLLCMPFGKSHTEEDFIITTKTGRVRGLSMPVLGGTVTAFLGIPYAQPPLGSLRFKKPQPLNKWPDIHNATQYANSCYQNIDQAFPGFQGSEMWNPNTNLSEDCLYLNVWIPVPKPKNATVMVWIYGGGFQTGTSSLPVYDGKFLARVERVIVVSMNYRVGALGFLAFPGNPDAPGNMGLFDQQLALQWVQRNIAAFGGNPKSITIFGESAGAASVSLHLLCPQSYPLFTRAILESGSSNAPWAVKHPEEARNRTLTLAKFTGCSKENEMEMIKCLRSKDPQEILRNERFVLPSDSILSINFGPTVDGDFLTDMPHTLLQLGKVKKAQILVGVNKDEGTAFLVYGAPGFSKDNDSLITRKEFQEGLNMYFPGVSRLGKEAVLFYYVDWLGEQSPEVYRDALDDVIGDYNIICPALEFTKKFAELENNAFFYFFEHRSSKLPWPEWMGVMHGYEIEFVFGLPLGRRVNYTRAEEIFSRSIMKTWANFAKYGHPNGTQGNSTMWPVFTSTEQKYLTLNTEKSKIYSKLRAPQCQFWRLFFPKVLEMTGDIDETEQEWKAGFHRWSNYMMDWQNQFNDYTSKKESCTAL

Structure (SMILES)	IC50 (Acetylcholinesterase; read-out: IC50) [µM]	IC50 (Cholinesterase [1]) [nM]	Ki (Cholinesterase [2]) [nM]	IC50 (Acetylcholinesterase)	inhibition (Cholinesterase [3]) [%]	inhibition [4] [%]	Activity [5] [%]	Activity (SH-SY5Y [6])	Activity [7]	Activity (SH-SY5Y [8])
COCCN(C[C@@H]1CCCN(C2Cc3ccccc3C2)C1)C(=O)c1ccc2ccccc2c1	101	13	2.71	–	–	–	–	–	–	–
CCn1nc(C(=O)N2CCCC2)c2c1CCC(NCCc1nc(-c3ccccc3)cs1)C2 (centres undefined)	–	2150	–	Not Active	> 50	> 50	–	–	–	–
CC(c1nc2ccccc2s1)N(C)C(=O)CN1CCCC1c1ccc2c(c1)OCCCO2 (centres undefined)	–	1360	–	–	> 50	> 50	94	–	–	–
COCCN(CC1CCCN(C2Cc3ccccc3C2)C1)C(=O)c1ccc2ccccc2c1 (racemic)	–	–	–	–	> 50	> 50	–	Dose-dependent effect	Non-toxic	Dose-dependent effect
COCCN(C[C@H]1CCCN(C2Cc3ccccc3C2)C1)C(=O)c1ccc2ccccc2c1	110	166	27	–	–	–	–	–	–	–
